Structures are written as SMILES.

T1 sequence (P03951 19-625): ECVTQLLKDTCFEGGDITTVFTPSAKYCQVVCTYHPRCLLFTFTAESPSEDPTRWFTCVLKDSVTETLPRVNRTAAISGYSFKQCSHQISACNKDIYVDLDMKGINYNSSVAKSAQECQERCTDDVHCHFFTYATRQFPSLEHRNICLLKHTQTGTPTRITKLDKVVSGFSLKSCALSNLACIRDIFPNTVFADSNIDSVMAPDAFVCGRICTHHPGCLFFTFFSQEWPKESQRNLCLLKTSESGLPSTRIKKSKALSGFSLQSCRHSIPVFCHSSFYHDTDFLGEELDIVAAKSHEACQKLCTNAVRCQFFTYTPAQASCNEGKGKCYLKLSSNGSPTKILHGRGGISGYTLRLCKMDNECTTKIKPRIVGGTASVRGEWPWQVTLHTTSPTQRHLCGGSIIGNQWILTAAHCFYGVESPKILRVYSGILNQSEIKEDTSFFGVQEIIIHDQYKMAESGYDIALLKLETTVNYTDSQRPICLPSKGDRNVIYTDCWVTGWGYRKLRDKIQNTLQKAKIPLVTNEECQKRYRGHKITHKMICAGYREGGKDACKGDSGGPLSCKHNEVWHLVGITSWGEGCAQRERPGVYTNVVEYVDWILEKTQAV

The test addresses T1, Human coagulation factor (F)XI (Homo sapiens, UniProt P03951).
T1 construct: purchased Haematologic Technologies Inc. (FXI); Enzyme Research Laboratories (FXIIa) HCXI-150 (FXI); HFXIIa (FXIIa)
Kind of test: Inhibition of FXIIa mediated activation of FXI (activation of human Factor XI to XIa by human Factor α-XIIa). Format: biochemical. The following applies: human FXI pre-incubated with compound 30 min at 22° C., activation by human FXIIa 60 min, z-GPR-AFC substrate, fluorescence 405/510 nm, 4 parameter logistic fit; read-out: Inhibition of FXIIa meditated activation of FXI. On the procedure:
Inhibition of FXIIa Mediated Activation of FXI
Activation of Human Factor XI to XIa by Human Factor α-XIIa
Assay was performed in 50 mM HEPES, 150 mM NaCl, 5 mM CaCl2, 0.1% PEG-8000, pH 7.4 buffer in black, flat-bottom, polystyrene microplates (Corning, Cat #3573). Serial dilutions (10-point, 3.333-fold) of the test compounds delivered as 10 mM DMSO stocks were prepared in the Labcyte Echo-qualified PP 384 well microplates (Labcyte, Cat #P-05525). Human coagulation factor (F)XI (Haematologic Technologies Inc., Cat #HCXI-150, concentration 46 nM, 19.5 uL) was pre-incubated with 0.5 uL of the test compounds for 30 min at 22° C. The activation was initiated by addition of 10 uL of human coagulation factor (F)XIIa (Enzyme Research Laboratories, Cat #HFXIIa, concentration 30 nM) and reaction proceeded for 60 min at 22° C., after which it was quenched by addition of a selective inhibitor of FXIIa (Compound 54 in WO2018093695) concentration 600 uM in DMSO, 1 uL). 10 min after the quench, 29 uL of z-GPR-AFC substrate (Sigma, Cat #C0980-10MG, concentration 200 uM) was added into each well and the detection reaction proceeded for 60 min at 22° C. Fluorescence at 405/510 nm was measured in end-point mode using an Envision plate-reader (Perkin Elmer). IDBS Activity Base XE (ABase) analysis using 4 parameter logistic fit was performed to determine Minimum, Maximum, EC50, and Slope Factor for each compound.
`Cc1cnc(C(=O)N2CCC(C#N)(c3ccccc3)CC2)cc1C(=O)N(CCC1(O)CCCC1)C1CCC1` [Example 7, 2-(4-cyano-4-phenylpiperidine-1-carbonyl)-N-cyclobutyl-N-(2-(1-hydroxycyclopentyl)ethyl)-5-methylisonicotinamide]: the EC50 came to 43.5 nM. Under `Cc1cnc(C(=O)N2CCC(C#N)(c3ccccc3)CC2)cc1C(=O)N1CCC(c2ccccc2)CC1` [Example 5, 1-(5-methyl-4-(4-phenylpiperidine-1-carbonyl)picolinoyl)-4-phenylpiperidine-4-carbonitrile] stands 30.4 nM; under `Cc1nc(C(=O)N2CCC(C#N)(c3ccccc3)CC2)cc(C(=O)N2CCC(c3ccccc3)CC2)c1C` [Example 32, 1-[5,6-dimethyl-4-(4-phenylpiperidine-1-carbonyl)pyridine-2-carbonyl]-4-phenyl-piperidine-4-carbonitrile], 36.6 nM.

Consider `Cc1cnc(C(=O)N2CCC(C#N)(c3ccccc3)CC2)cc1C(=O)N1CC2CC(C1)C2c1ccccc1` (centres unmarked) [Example 13, 1-(5-methyl-4-(6-phenyl-3-azabicyclo[3.1.1]heptane-3-carbonyl)picolinoyl)-4-phenylpiperidine-4-carbonitrile], for which the EC50 stood at 66.7 nM. Next, `Cc1nc(C(=O)N2CCC(C#N)(c3ccccc3)CC2)cc(C(=O)N2CCC(N3CCC(F)(F)C3)CC2)c1C` [Example 26, 1-[4-[4-(3,3-difluoropyrrolidin-1-ium-1-yl)piperidine-1-carbonyl]-5,6-dimethyl-pyridine-2-carbonyl]-4-phenyl-piperidine-4-carbonitrile; 2,2,2-trifluoroacetate]: 105 nM. Next, `Cc1nc(C(=O)N2CCC(C#N)(c3ccccc3)CC2)cc(C(=O)N2CCC(C(C)(C)C)CC2)c1C` [Example 27, 1-[4-(4-tert-butylpiperidine-1-carbonyl)-5,6-dimethyl-pyridine-2-carbonyl] -4-phenyl-piperidine-4-carbonitrile]: 25.1 nM. Next, `Cc1cnc(C(=O)N2CCC(C#N)(c3ccccc3)CC2)cc1C(=O)N1CCC2c3ccc(F)cc3OC2C1` (centres unmarked) [Example 20, 1-[4-(7-fluoro-3,4,4a,9a-tetrahydro-1H-benzofuro[2,3-c]pyridine-2-carbonyl)-5-methyl-pyridin-1-ium-2-carbonyl]-4-phenyl-piperidine-4-carbonitrile; 2,2,2-trifluoroacetate]: 37.1 nM. Consider `N#CC1(c2ccccc2)CCN(C(=O)c2cc(C(=O)N3CC(c4ccc(F)cc4)C3)c(C(F)(F)F)cn2)CC1` [Example 17, 1-(4-(3-(4-fluorophenyl)azetidine-1-carbonyl)-5-(trifluoromethyl)picolinoyl)-4-phenylpiperidine-4-carbonitrile], for which the EC50 worked out at 411 nM.

With `Cc1cnc(C(=O)N2CCC(C#N)(c3ccccc3)CC2)cc1C(=O)N1CCC2c3ccc(Cl)cc3OC2C1` (centres unmarked) [Example 23, 1-[4-(7-chloro-3,4,4a,9a-tetrahydro-1H-benzofuro[2,3-c]pyridine-2-carbonyl)-5-methyl-pyridin-1-ium-2-carbonyl]-4-phenyl-piperidine-4-carbonitrile; 2,2,2-trifluoroacetate], the EC50 came to 75.1 nM.

On to `N#CC1(c2ccccc2)CCN(C(=O)c2cc(C(=O)N3CCC4c5ccccc5OC4C3)c(C(F)(F)F)cn2)CC1` (centres unmarked) [Example 16, 1-(4-(1,2,3,4,4a,9a-hexahydrobenzofuro[2,3-c]pyridine-2-carbonyl)-5-(trifluoromethyl)picolinoyl)-4-phenylpiperidine-4-carbonitrile], for which the EC50 came to 106 nM. Under `COc1ccc2c(c1)OC1CN(C(=O)c3cc(C(=O)N4CCC(C#N)(c5ccccc5)CC4)ncc3C)CCC21` (centres unmarked) [Example 21, 1-[4-(7-methoxy-3,4,4a,9a-tetrahydro-1H-benzofuro[2,3-c]pyridine-2-carbonyl)-5-methyl-pyridin-1-ium-2-carbonyl]-4-phenyl-piperidine-4-carbonitrile; 2,2,2-trifluoroacetate] stands 199 nM.
